Assays:
[1] = biological target: T1, TLR4 (wild-type and point mutants, TLR4 C747A) (Homo sapiens, UniProt O00206, C747A); assay: NF-κB luciferase reporter assay in HEK293 cells expressing wild-type or mutant TLR4 after LPS stimulation; assay type: cell-based; design: expressed in transfected cells; host or cells: HEK293 (human embryonic kidney); conditions: 0, 30, 100, 300 nmol/L, 2 hr, then LPS 100 ng/mL 4 hr; HEK293; FL/RL ratio; only this mutant (FIG. 3)
Experimental: (§1) Human embryonic kidney-derived HEK293 was suspended in DMEM containing 10% FCS, plated in a 96 well plate at 2×10^4 cells/well and cultured overnight at 37° C., 5% CO2. The medium was changed to OPTI-MEM (Invitrogen, 50 μL/well) immediately before transfection. A plasmid encoding FLAG-TLR4WT or a mutant thereof (0CA-3CA, PH, 1KR-9KR) was added to 0.5 ng/well, and transfection was performed using a PLUS reagent (Invitrogen) or a LipofectAMINE reagent (Invitrogen) according to a conventional method. The cells were cultured at 37° C., 5% CO2 for 3 hr. After culture, DMEM containing 20% FCS was added to 100 μL/well, and the cells were further cultured overnight to give forced expression cells. As common DNAs, pNiFty (plasmid for NF-κB activation measurement, 15 ng/well), phRL-TK (internal standard plasmid, 15 ng/well), MD-2 plasmid (10 ng/well) and CD14 plasmid (10 ng/well) were transfected together with wild-type TLR4 and each mutant.
(§2) The next day of the transfection, the medium of the forced expression cells was changed to DMEM containing 1% FCS, compound A (ethyl (6R)-6-[N-(2-chloro-4-fluorophenyl)sulfamoyl]-1-cyclohexene-1-carboxylate), compound B (d-ethyl 6-[N-(2,4-difluorophenyl)sulfamoyl]-1-cyclohexene-1-carboxylate), compound C (ethyl 6-[N-(2-bromo-4-fluorophenyl)sulfamoyl]-1-cyclohexene-1-carboxylate), compound D (d-ethyl 6-[(2-chloro-4-fluorobenzyl)sulfonyl]-1-cyclohexene-1-carboxylate) were added to the final concentration of 0, 30, 100, 300 nmol/L and the cells were cultured for 2 hr at 37° C., 5% CO2. LPS was added to 100 ng/mL, and the cells were further cultured for 4 hr. After culture, the luminescence of luciferase was measured using Dual-Glo™ Luciferase Assay System (Promega). For the measurement, the luminescence of firefly luciferase (derived from FL, NF-κB activation) and renilla luciferase (RL, internal standard) was measured, and CPS (counts per second) of FL was amended by CPS of RL to give FL/RL ratio.

[2] = biological target: T2, TLR4 (wild-type and point mutants, TLR4 C747A) (Homo sapiens, UniProt O00206); assay: as above; assay type: cell-based; design: expressed in transfected cells; host or cells: HEK293 (human embryonic kidney); conditions: concluded from reporter assay with TLR4 mutants, HEK293 (FIG. 3)
T2 sequence (O00206 24-839 C747A): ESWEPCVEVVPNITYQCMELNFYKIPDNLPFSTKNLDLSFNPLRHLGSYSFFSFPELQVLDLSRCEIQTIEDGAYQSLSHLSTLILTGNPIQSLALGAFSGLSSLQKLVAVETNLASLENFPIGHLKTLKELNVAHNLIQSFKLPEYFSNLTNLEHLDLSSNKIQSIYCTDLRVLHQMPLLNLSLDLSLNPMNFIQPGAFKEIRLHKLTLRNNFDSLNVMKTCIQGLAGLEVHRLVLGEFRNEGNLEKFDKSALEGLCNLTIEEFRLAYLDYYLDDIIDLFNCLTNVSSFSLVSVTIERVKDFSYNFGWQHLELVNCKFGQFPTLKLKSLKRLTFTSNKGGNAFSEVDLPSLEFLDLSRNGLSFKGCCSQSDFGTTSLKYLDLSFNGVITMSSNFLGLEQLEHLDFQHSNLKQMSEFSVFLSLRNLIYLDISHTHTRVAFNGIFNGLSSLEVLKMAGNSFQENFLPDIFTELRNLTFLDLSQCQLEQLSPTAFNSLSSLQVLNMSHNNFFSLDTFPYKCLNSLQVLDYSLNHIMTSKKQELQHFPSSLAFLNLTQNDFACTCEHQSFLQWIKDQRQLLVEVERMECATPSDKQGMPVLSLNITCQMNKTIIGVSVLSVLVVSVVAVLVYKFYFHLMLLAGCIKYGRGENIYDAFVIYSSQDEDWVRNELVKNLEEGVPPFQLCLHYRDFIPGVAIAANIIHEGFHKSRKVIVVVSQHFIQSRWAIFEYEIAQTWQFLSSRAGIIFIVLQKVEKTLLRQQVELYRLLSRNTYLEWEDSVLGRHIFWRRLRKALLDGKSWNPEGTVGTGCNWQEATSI
Experimental: as §1, §2

[3] = biological target: T1, TLR4 (wild-type and point mutants, TLR4 C747A); assay: Binding of ^3H-compound A to FLAG-TLR4 wild-type and point mutants expressed in COS-7 cells (anti-FLAG immunoprecipitation, autoradiography); design: expressed in transfected cells; conditions: 100 nmol/L, 6 hr, COS-7 cells; only this mutant among 1CA-4CA, PH, 1KR-9KR (FIG. 2)
From the text: (§3) cDNA encoding TLR4 was obtained by a conventional method using PCR, and incorporated into expression vector pEFBos. Each point mutant was produced using QuikChange II Site-directed Mutagenesis Kit (manufactured by Stratagene). A mismatch corresponding to a mutation was introduced into both ends of a primer according to the manual of the kit. The produced primers are as follows (mutant introduction sites are underlined). Thereafter, a mutant was produced according to the manual and a competent cell was transformed therewith. Single colonies were picked up, a plasmid was prepared according to a conventional method and DNA sequence was confirmed to give a plasmid containing each mutant TLR4.
(§4) Escherichia coli was transformed with the produced plasmids, about 500-700 μg thereof was each purified using EndoFree (R) Plasmid Maxi Kit (Quiagen). […]
(§5) The immunoprecipitated was applied to SDS-PAGE to separate the protein, and the gel after migration was immersed in a blotting buffer for 15 min to remove SDS. […] The luminescence of the band was photographed on an X ray film, Kodak Biomax-MS, and the protein expression level was confirmed (FIG. 2; the upper panel). The photographed PVDF membrane was washed with PBS-T, photosensitized on imaging plate TR-2040 for 7 days, and the amount of ^3H bound to the expressed protein was measured using BAS-2500 (FUJIFILM Corporation).

[4] = biological target: T2, TLR4 (wild-type and point mutants, TLR4 C747A); assay: as above; design: expressed in transfected cells; conditions: concluded from mutant binding, COS-7 cells (FIG. 2)
From the text: as §3, §4, §5

[5] = biological target: T3, GST-TLR4 intracellular TIR domain fusion protein (Homo sapiens, UniProt O00206); assay: Pull-down of GST fusion protein-bound beads with ^3H-compound A, SDS-PAGE, autoradiography; assay type: binding; conditions: beads reacted at 4° C. overnight; autoradiography (FIG. 1B)
T3 construct: made in house; host or cells: Escherichia coli
T3 sequence (O00206 674-839): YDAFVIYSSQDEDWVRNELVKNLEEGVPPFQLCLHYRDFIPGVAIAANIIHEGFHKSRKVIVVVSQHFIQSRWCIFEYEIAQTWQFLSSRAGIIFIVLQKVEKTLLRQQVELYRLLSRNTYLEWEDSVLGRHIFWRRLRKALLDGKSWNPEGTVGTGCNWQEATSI
Experimental: (§6) Using the above-mentioned primer DNA and TAKARA Ex Taq and after first standing at 95° C. for 2 min in a thermal cycler, PCR was performed 30 cycles with 95° C. for 30 sec, at 55° C. for 30 sec and at 72° C. for 1 min as one cycle. Lastly, an elongation reaction was performed at 72° C. for 10 min. The amplified DNA fragment was cloned using a TA Cloning Kit (Invitrogen). The obtained plasmid vector was treated with a restriction enzyme and electrophoresed on agarose gel. The band was cleaved out using a Sephaglas B and Prep Kit (Amersham) and purified. This was inserted as an insert into vector plasmid pGEX-4T-1 (Amersham) using DNA ligation kit Ver.2 (TAKARA).
(§7) Escherichia coli was transformed with the completed plasmid, and cultured in LB medium containing ampicillin (10 mL) at 37° C. for 18 hr. Culture medium (2.4 mL) was inoculated to LB medium containing ampicillin (130 mL), and subjected to shaking culture. When OD600 became amount 0.9, isopropyl-β-D-thiogalactopyranoside (1 mol/L) was added (130 μL), and the mixture was cultivated at 30° C. for 4 hr. After cultivation, the cells were collected and 10 mL of Lysis Buffer (10 mmol/L Tris pH 7.5, […], 0.5% triton-X-100, 1 mmolp/L PMSF) was added. The cells were disrupted by ultrasonication and centrifuged. To the obtained supernatant was added Glutathione Sepharose 4B (Amersham, 300 μL), and the mixture was gently shaken at 4° C. for 60 min. After the reaction, GST fusion protein-bound beads were washed with TBS (Tris buffered saline, 50 mM Tris-HCl pH7.5, 150 mM NaCl) added with 0.1% Triton X-100.
(§8) The completed GST fusion protein-bound beads and ^3H-compound A (synthesized by Amersham) were reacted at 4° C. overnight. After the reaction, the beads were washed with 0.1% Triton X-100 added TBS, a sample buffer for 5% 2-mercaptoethanol (ME)-containing sodium dodecyl sulfate (SDS)-polyacrylamide gel electrophoresis (PAGE) was added, and the mixture was heated at 100° C. for 5-10 min. The mixture was centrifuged, the supernatant was separated as a labeled protein sample, and the protein was separated by SDS-PAGE. […]

[6] = biological target: T4, GST-TIRAP fusion protein (Homo sapiens, UniProt P58753); assay: as above; assay type: binding; conditions: beads reacted at 4° C. overnight; autoradiography (FIG. 1B)
T4 construct: made in house; host or cells: Escherichia coli
T4 sequence (P58753 1-235 isoform P58753-2): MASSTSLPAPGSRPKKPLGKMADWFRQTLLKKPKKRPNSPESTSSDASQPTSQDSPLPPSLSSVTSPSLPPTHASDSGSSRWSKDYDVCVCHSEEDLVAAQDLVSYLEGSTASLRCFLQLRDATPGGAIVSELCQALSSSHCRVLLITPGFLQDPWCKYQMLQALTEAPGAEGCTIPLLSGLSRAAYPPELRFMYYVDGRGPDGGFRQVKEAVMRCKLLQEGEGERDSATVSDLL
Experimental: as §6, §7, §8

[7] = biological target: T5, GST-TLR2 intracellular TIR domain fusion protein (Homo sapiens, UniProt O60603); assay: as above; assay type: binding; conditions: beads reacted at 4° C. overnight; autoradiography (FIG. 1B)
T5 construct: GST and TIR domain of TLR2; made in house; host or cells: Escherichia coli
T5 sequence (O60603 639-782 limits assumed): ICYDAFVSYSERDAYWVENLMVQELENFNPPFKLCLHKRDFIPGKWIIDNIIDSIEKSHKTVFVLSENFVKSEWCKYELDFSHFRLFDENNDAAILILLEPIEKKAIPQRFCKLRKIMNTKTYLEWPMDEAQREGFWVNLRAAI
Experimental: as §6, §7, §8

T1 sequence (O00206 24-839 C747A): as the sequence (O00206 24-839 C747A) above

| SMILES | signal suppressing action when 747th cysteine of TLR4 mutated to alanine [1] | binding site in TLR4 through which the signal is suppressed [2] | binding amount of ^3H-compound A to TLR4 with 747th cysteine mutated to alanine [3] | binding site of compound A in TLR4 [4] | binding of ^3H-compound A to GST-TLR4 intracellular TIR domain fusion protein [5] | binding of ^3H-compound A to GST-TIRAP fusion protein [6] | binding of ^3H-compound A to GST-TLR2 intracellular TIR domain fusion protein [7] |
| --- | --- | --- | --- | --- | --- | --- | --- |
| CCOC(=O)C1=CCCCC1S(=O)(=O)Nc1ccc(F)cc1Br (stereo not shown) [compound C, ethyl 6-[N-(2-bromo-4-fluorophenyl)sulfamoyl]-1-cyclohexene-1-carboxylate] | disappeared | selectively bind to the 747th cysteine | – | – | – | – | – |
| CCOC(=O)C1=CCCC[C@H]1S(=O)(=O)Nc1ccc(F)cc1Cl [compound A, ethyl (6R)-6-[N-(2-chloro-4-fluorophenyl)sulfamoyl]-1-cyclohexene-1-carboxylate] | disappeared | selectively bind to the 747th cysteine | remarkably decreased | selectively bound to the 747th cysteine | selectively bound | not bound | not bound |
| CCOC(=O)C1=CCCCC1S(=O)(=O)Nc1ccc(F)cc1F (stereo not drawn) [compound B, d-ethyl 6-[N-(2,4-difluorophenyl)sulfamoyl]-1-cyclohexene-1-carboxylate] | disappeared | selectively bind to the 747th cysteine | – | – | – | – | – |
| CCOC(=O)C1=CCCCC1S(=O)(=O)Cc1ccc(F)cc1Cl (stereo not drawn) [compound D, d-ethyl 6-[(2-chloro-4-fluorobenzyl)sulfonyl]-1-cyclohexene-1-carboxylate] | disappeared | selectively bind to the 747th cysteine | – | – | – | – | – |
